Publication PMC9775191, “A Subset Screen of the Compounds Australia Scaffold Library Identifies 7-Acylaminodibenzoxazepinones as Potent and Selective Hits for Anti-Giardia Drug Discovery” (Biomedicines, 2022)

The compounds below were run on G. duodenalis BRIS/91/HEPU/1279 (assay: Primary Giardia screen at 10 µM (live-cell imaging, automated counting)). Conditions: 24 h.
Format: cell-based, Giardia duodenalis
Procedure, shortened: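 Singlicate, 10 μM final, 0.2% DMSO; sealed chambers, 3% O2/5% CO2/N2. Counts by live-cell imaging at 24 h and 48 h. % growth vs vehicle, media background subtracted; Z' per plate.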
In the case of `Cc1cccc(NC(=O)N2CCN(c3cc(C)nc(N4CCCC4)n3)CC2)c1` [SN00786874], the “Average % Inhibition 24h” value is reported as 3.5%. In the case of `Cc1csc(-c2cc(S(=O)(=O)N3c4ccccc4CC3C)c(C)n2C)n1` (stereo not shown) [SN00795179], the “Average % Inhibition 24h” value is reported as 22.6%.

Same assay, conditions: 24 h, first singlicate assay
In the case of `Cc1cccc(NC(=O)N2CCN(c3cc(C)nc(N4CCCC4)n3)CC2)c1` [SN00786874], the “% Inhibition n=1 24h” value is reported as 7.1%. `Cc1csc(-c2cc(S(=O)(=O)N3c4ccccc4CC3C)c(C)n2C)n1` (stereo not shown) [SN00795179] was tested, and the “% Inhibition n=1 24h” value was 34.1%.

Same assay, conditions: 24 h, re-assessment
In the case of `Cc1cccc(NC(=O)N2CCN(c3cc(C)nc(N4CCCC4)n3)CC2)c1` [SN00786874], the “% Inhibition n=2 24h” value is reported as 0.0%. With `Cc1csc(-c2cc(S(=O)(=O)N3c4ccccc4CC3C)c(C)n2C)n1` (stereo not shown) [SN00795179] the “% Inhibition n=2 24h” value was 11.1%.

Same assay, conditions: 48 h
In the case of `Cc1cccc(NC(=O)N2CCN(c3cc(C)nc(N4CCCC4)n3)CC2)c1` [SN00786874], the “Average % Inhibition 48h” value is reported as 39.9%. In the case of `Cc1csc(-c2cc(S(=O)(=O)N3c4ccccc4CC3C)c(C)n2C)n1` (stereo not shown) [SN00795179], the “Average % Inhibition 48h” value is reported as 63.7%.

Same assay, conditions: 48 h, first singlicate assay
In the case of `Cc1cccc(NC(=O)N2CCN(c3cc(C)nc(N4CCCC4)n3)CC2)c1` [SN00786874], the “% Inhibition n=1 48h” value is reported as 49.3%. With `Cc1scc2nc(C(N)=O)nc(N3CCCC3)c12` [SN00801956] the “% Inhibition n=1 48h” value was 22.6%. In the case of `CCOC(=O)c1csc(-n2nc(CC(C)C)cc2C(F)(F)F)n1` [SN00802831], the “% Inhibition n=1 48h” value is reported as 29.0%. `CN1c2ccccc2OCC1CC(=O)Nc1ccc(F)cc1` (stereo not shown) [SN00790682] was tested, and the “% Inhibition n=1 48h” value was 7.6%. In the case of `Cc1noc(C)c1CCNC(=O)C1CCN(c2nc3cccnc3n(C)c2=O)CC1` [SN00790058], the “% Inhibition n=1 48h” value is reported as 15.0%. `CN(C)CC1CN(S(=O)(=O)c2ccccc2)CC12CCOCC2` (stereo not shown) [SN00801264] was tested, and the “% Inhibition n=1 48h” value was 0.0%. `O=C(NCCC1=CCCCC1)C1CCN(c2nc3cccnc3n(Cc3ccccc3)c2=O)CC1` [SN00790039] was tested, and the “% Inhibition n=1 48h” value was 11.4%. In the case of `Cc1nc(C2CCN(CC(=O)NC(c3ccc(F)cc3)c3cccs3)CC2)n[nH]1` (stereo not shown) [SN00772581], the “% Inhibition n=1 48h” value is reported as 24.6%. For `Cc1cc(C)c2c(=O)n(CC(=O)Nc3ccc(Br)cc3)c(=O)n(C)c2n1` [SN00794110], the “% Inhibition n=1 48h” value was 0.0%. `COc1ccccc1N1CCN(C(=O)c2cc(C3CC3)n[nH]2)CC1` [SN00787811] was tested, and the “% Inhibition n=1 48h” value was 0.0%. In the case of `COc1ccc(-c2cccc(NC(=O)c3ccccc3Br)c2)nn1` [SN00799416], the “% Inhibition n=1 48h” value is reported as 16.0%. In the case of `O=C(Cn1cnc2c(nnn2Cc2ccc(Cl)cc2)c1=O)NC1CCCC1` [SN00802568], the “% Inhibition n=1 48h” value is reported as 16.4%. With `CCOc1ccc(-c2nc3sc4cc(C)ccc4n3c2NCCOC)cc1` [SN00795352] the “% Inhibition n=1 48h” value was 0.0%. In the case of `COc1ccc(C(=O)N2c3ccccc3NC(=O)CC2C)cc1OC` (stereo not shown) [SN00777269], the “% Inhibition n=1 48h” value is reported as 0.0%. `CN(C)[C@@H]1CN(C(=O)c2ccco2)CC[C@]1(O)c1ccccc1` [SN00801222] was tested, and the “% Inhibition n=1 48h” value was 3.1%. In the case of `COCCn1cc2c3c(cccc31)CN(C(=O)c1cccc(Cl)c1)CC2` [SN00798558], the “% Inhibition n=1 48h” value is reported as 26.2%. `CCCn1c(=O)c2c(nc3n2CCN3c2ccc(CC)cc2)n(C)c1=O` [SN00779194] was tested, and the “% Inhibition n=1 48h” value was 0.0%. `Cc1ccc(-c2cc(C(=O)N3CC(C)CC(C)C3)c3ccccc3n2)o1` (stereo not shown) [SN00783691] was tested, and the “% Inhibition n=1 48h” value was 7.2%. `O=C(c1ccoc1)N1CCC(Oc2nccnc2N2CCc3ccccc32)C1` (stereo not shown) [SN00800151] was tested, and the “% Inhibition n=1 48h” value was 22.8%. For `Cc1csc(-c2cc(S(=O)(=O)N3c4ccccc4CC3C)c(C)n2C)n1` (stereo not shown) [SN00795179], the “% Inhibition n=1 48h” value was 71.5%. In the case of `O=C(c1cc(=O)[nH]c2ccccc12)N1CCN(Cc2ccc3c(c2)OCO3)CC1` [SN00774920], the “% Inhibition n=1 48h” value is reported as 0.0%. In the case of `Cc1ccc(-n2nc(C)c3sc(N4CCCC(C(=O)NCC5CCCO5)C4)nc32)cc1` (stereo not shown) [SN00796250], the “% Inhibition n=1 48h” value is reported as 2.9%. In the case of `CS(=O)(=O)c1ccc(-c2csc(-n3nccc3C(F)(F)F)n2)cc1` [SN00776135], the “% Inhibition n=1 48h” value is reported as 7.7%. For `O=C(NCc1cccc(Br)c1)c1ncoc1-c1cccs1` [SN00792278], the “% Inhibition n=1 48h” value was 6.4%. With `CCOC(=O)c1sc2nc(C)nc(N3CCCCC3C)c2c1C` (stereo not shown) [SN00783508] the “% Inhibition n=1 48h” value was 0.0%. For `Cc1cccc(C2=NC3(CCN(C(=O)NC4CCCCC4)CC3)NC2=O)c1` [SN00792717], the “% Inhibition n=1 48h” value was 13.8%. In the case of `COc1ccc(-c2cnc(C)o2)cc1S(=O)(=O)Nc1ccc(C)cc1` [SN00792030], the “% Inhibition n=1 48h” value is reported as 22.0%. With `COc1ccc(CNC(=O)c2cc3c(=O)n(Cc4ccccc4)ccc3s2)cc1` [SN00797837] the “% Inhibition n=1 48h” value was 0.0%. In the case of `O=C(NCc1ccccc1)c1nc[nH]c1C(=O)NCc1cccc(C(F)(F)F)c1` [SN00786288], the “% Inhibition n=1 48h” value is reported as 20.4%. `COCC(=O)Nc1ccc(NC(=O)c2cc3nc(C)ccc3o2)cc1` [SN00781689] was tested, and the “% Inhibition n=1 48h” value was 14.1%. With `CCOc1cc(F)ccc1NC(=O)N1CCCC(N2CCCC2=O)C1` (stereo not shown) [SN00782090] the “% Inhibition n=1 48h” value was 7.0%. `O=C(c1cnccn1)N1CCCC1c1nc(-c2ccccc2)no1` (stereo not shown) [SN00801675] was tested, and the “% Inhibition n=1 48h” value was 0.0%. With `CCn1nc(C(=O)NCc2ccccc2F)cc1-c1cc(C)sc1C` [SN00802641] the “% Inhibition n=1 48h” value was 9.7%. `CCc1ccc(NC(=O)Cn2nc3n(c2=O)CCCC3)cc1` [SN00801641] was tested, and the “% Inhibition n=1 48h” value was 9.1%. For `Cc1ccc(CNc2nc(-c3ccco3)nn2C(=O)C(C)C)cc1` [SN00786221], the “% Inhibition n=1 48h” value was 11.1%. `Cc1ccc(S(=O)(=O)NC(C)c2nc(-c3cccc(C(=O)N4CCCC4)c3)no2)cc1` (stereo not shown) [SN00789753] was tested, and the “% Inhibition n=1 48h” value was 5.7%. With `COc1ccc(Cn2cccc2C2=NC(C)(C)CO2)cc1` [SN00784853] the “% Inhibition n=1 48h” value was 19.2%. In the case of `COc1ccc(Cl)cc1-n1nnc(-c2nsc(NC(=O)c3ccccc3)n2)c1C` [SN00791316], the “% Inhibition n=1 48h” value is reported as 20.0%. With `O=C(Cc1cccs1)Nc1ccc(N2CCN(c3ccccc3F)CC2)cc1C(=O)O` [SN00790111] the “% Inhibition n=1 48h” value was 0.0%. `COCCN1CCC(N2CCCN(C(=O)NCCc3ccccc3)CC2)C1=O` (stereo not shown) [SN00802413] was tested, and the “% Inhibition n=1 48h” value was 1.7%. `COc1ccc(NC(=O)c2cc(C(F)(F)F)n(C)n2)cc1` [SN00786766] was tested, and the “% Inhibition n=1 48h” value was 0.0%. With `Cc1ccc(S(=O)(=O)N(C)c2ccsc2C(=O)Nc2ccc(C)c(C)c2)cc1` [SN00797041] the “% Inhibition n=1 48h” value was 12.0%. For `O=C(C(c1ccccc1)c1ccccc1)N1CCCC(c2nnc3n2CCCCC3)C1` (stereo not shown) [SN00771924], the “% Inhibition n=1 48h” value was 8.5%. `Cc1ccc(NC(=O)Cc2nc(-c3ccc4c(c3)CC(=O)N4C)cs2)cc1` [SN00777029] was tested, and the “% Inhibition n=1 48h” value was 10.0%. `CC(C)(C)OC(=O)N1CCCC(N(Cc2ccccc2)C(=O)Cc2csc(-c3cccnc3)n2)C1` (stereo not shown) [SN00774555] was tested, and the “% Inhibition n=1 48h” value was 0.0%. In the case of `c1ccc(-c2nnc(CN3CCn4c(nnc4C4CC4)C3)o2)cc1` [SN00773167], the “% Inhibition n=1 48h” value is reported as 0.0%. In the case of `CC(=O)N1N=C2C3CCN(CC3)[C@@H]2[C@@H]1c1cccc2ccccc12` (relative stereo) [SN00783777], the “% Inhibition n=1 48h” value is reported as 0.0%. For `CCS(=O)(=O)c1nc2ccc(NS(=O)(=O)c3ccc4c(c3)OCCO4)cc2s1` [SN00797922], the “% Inhibition n=1 48h” value was 0.0%. `Cc1ccc(CNC(=O)N2CCCN(C3CCN(CC4CC4)C3=O)CC2)cc1` (stereo not shown) [SN00802402] was tested, and the “% Inhibition n=1 48h” value was 5.4%. With `Cc1ccc(S(=O)(=O)NC2CCN(C(=O)Cc3ccc(Br)cc3)CC2)cc1` [SN00795227] the “% Inhibition n=1 48h” value was 3.1%. For `COc1cccc([C@H]2C[C@@H](C(F)(F)F)n3ncc(C(=O)N4CCCCC4)c3N2)c1` (relative stereo) [SN00783803], the “% Inhibition n=1 48h” value was 0.0%. With `Cc1sc(=O)n(CCC(=O)N2CCC(C)CC2c2ccco2)c1C` (stereo not shown) [SN00783298] the “% Inhibition n=1 48h” value was 0.0%. `CCN(c1ccccc1)S(=O)(=O)c1ccc2[nH]cc(C(=O)NCCOC)c(=O)c2c1` [SN00794693] was tested, and the “% Inhibition n=1 48h” value was 10.4%. With `O=C(N1CCC(CCOCc2cccc(F)c2)CC1)C1(c2ccccc2)CC1` [SN00799224] the “% Inhibition n=1 48h” value was 0.0%. `COc1ccc(-c2cc3c(=O)n(Cc4cccc(F)c4)ccn3n2)cc1` [SN00793208] was tested, and the “% Inhibition n=1 48h” value was 0.0%. For `Cc1sc2c(c1C)C(c1ccc(F)cc1)=NCC(=O)N2CC(=O)Nc1ccc(Cl)cc1` [SN00791866], the “% Inhibition n=1 48h” value was 0.0%. With `Cc1ccc([N+](=O)[O-])cc1NC(=O)N1CCC(n2cncn2)CC1` [SN00781334] the “% Inhibition n=1 48h” value was 0.0%.

Same assay, conditions: 48 h, re-assessment
With `Cc1cccc(NC(=O)N2CCN(c3cc(C)nc(N4CCCC4)n3)CC2)c1` [SN00786874] the “% Inhibition n=2 48h” value was 30.5%. With `Cc1csc(-c2cc(S(=O)(=O)N3c4ccccc4CC3C)c(C)n2C)n1` (stereo not shown) [SN00795179] the “% Inhibition n=2 48h” value was 55.8%.
